The source made the active and inactive calls. The rule behind the calls is not given here.
Key:
[1] = system: NCI-H1299; experiment: Cytotoxicity against human NCI-H1299 cells assessed as reduction in cell viability by measuring combinantion index at 0.3 to 0.6 uM after 48 hrs in presence of CPT by MTT assay; format: functional
[2] = system: NCI-H520; experiment: Cytotoxicity against human NCI-H520 cells assessed as reduction in cell viability at 0.3 to 0.6 uM after 48 hrs in presence of HCPT by MTT assay; format: functional, cell-based
[3] = system: NCI-H460; experiment: Induction of apoptosis in human NCI-H460 cells assessed as activation of caspase-3/7 at 0.6 uM after 48 hrs in presence of CPT by luciferase reporter gene assay; format: functional, cell-based
[4] = system: NCI-H446; experiment: Induction of apoptosis in human NCI-H446 cells assessed as activation of caspase-3/7 at 0.6 uM after 48 hrs in presence of CPT by luciferase reporter gene assay; format: functional, cell-based
[5] = system: NCI-H460; experiment: Induction of apoptosis in human NCI-H460 cells assessed as activation of caspase-3/7 at 0.6 uM after 48 hrs in presence of HCPT by luciferase reporter gene assay; format: functional, cell-based
[6] = target: T1, MAP kinase p38 (Homo sapiens) (UniProt O15264+Q15759+Q16539+P53778); experiment: Increase in p38 MAPK phosphorylation in human NCI-H460 cells at 0.6 uM in presence of HCPT by Western blot method; format: cell-based
[7] = system: NCI-H446; experiment: Effect on Akt protein expression in human NCI-H446 cells at 0.6 uM in presence of CPT by Western blot method; format: functional, cell-based
[8] = target: T2, Mitogen-activated protein kinase; ERK1/ERK2 (Homo sapiens) (UniProt P27361+P28482); experiment: Effect on ERK1/2 phosphorylation in human NCI-H446 cells at 0.6 uM in presence of CPT by Western blot method; format: cell-based
[9] = system: NCI-H446; experiment: Induction of apoptosis in human NCI-H446 cells assessed as activation of caspase-3/7 at 0.6 uM after 48 hrs by luciferase reporter gene assay; format: functional, cell-based
[10] = system: NCI-H446; experiment: Induction of apoptosis in human NCI-H446 cells assessed as increase in Bax expression at 0.6 uM in presence of CPT by Western blot method; format: functional, cell-based
[11] = system: NCI-H460; experiment: Induction of apoptosis in human NCI-H460 cells at 0.6 uM in presence of HCPT by Annexin-V FITC/propidium iodide staining based flow cytometry; format: functional, cell-based; conditions: TDE = time-dependent effect
[12] = target: T2, Mitogen-activated protein kinase; ERK1/ERK2 (Homo sapiens); experiment: Effect on ERK1/2 phosphorylation in human NCI-H446 cells at 0.6 uM in presence of HCPT by Western blot method; format: cell-based
[13] = system: NCI-H446; experiment: Induction of apoptosis in human NCI-H446 cells at 0.6 uM up to 20 mins in presence of HCPT by acridine orange/ ethidium bromide staining based fluorescence microscopic method relative to control; format: functional
[14] = system: NCI-H446; experiment: Induction of apoptosis in human NCI-H446 cells assessed as increase in caspase-9 expression at 0.6 uM in presence of CPT by Western blot method; format: functional, cell-based
[15] = system: NCI-H446; experiment: Induction of apoptosis in human NCI-H446 cells assessed as increase in cleaved PARP expression at 0.6 uM in presence of CPT by Western blot method; format: functional, cell-based
[16] = species on record: Homo sapiens; experiment: Effect on Akt phosphorylation in human NCI-H446 cells at 0.6 uM in presence of CPT by Western blot method; format: cell-based
[17] = system: NCI-H446; experiment: Induction of apoptosis in human NCI-H446 cells at 0.6 uM in presence of HCPT by Annexin-V FITC/propidium iodide staining based flow cytometry; format: functional, cell-based; conditions: TDE = time-dependent effect
[18] = target: T1, MAP kinase p38 (Homo sapiens); experiment: Effect on p38 MAPK phosphorylation in human NCI-H446 cells at 0.6 uM in presence of HCPT by Western blot method; format: cell-based
[19] = system: NCI-H460; experiment: Induction of apoptosis in human NCI-H460 cells assessed as increase in caspase-9 expression at 0.6 uM in presence of CPT by Western blot method; format: functional, cell-based
[20] = system: NCI-H460; experiment: Induction of apoptosis in human NCI-H460 cells at 0.6 uM after 24 to 48 hrs by Annexin-V FITC/propidium iodide staining based flow cytometry; format: functional, cell-based
[21] = system: NCI-H446; experiment: Effect on ERK1/2 protein expression in human NCI-H446 cells at 0.6 uM in presence of CPT by Western blot method; format: functional, cell-based
[22] = system: NCI-H446; experiment: Cytotoxicity against human NCI-H446 cells assessed as reduction in cell viability by measuring combinantion index at 0.3 to 0.6 uM after 48 hrs in presence of CPT by MTT assay; format: functional
[23] = system: NCI-H460; experiment: Cytotoxicity against human NCI-H460 cells assessed as reduction in cell viability after 48 hrs by MTT assay; format: functional, cell-based; conditions: NCI-H460, 48 h
[24] = system: NCI-H520; experiment: Cytotoxicity against human NCI-H520 cells assessed as reduction in cell viability at 0.3 to 0.6 uM after 48 hrs in presence of CPT by MTT assay; format: functional, cell-based
[25] = system: NCI-H460; experiment: Induction of apoptosis in human NCI-H460 cells assessed as increase in caspase-9 expression at 0.6 uM in presence of HCPT by Western blot method; format: functional, cell-based
[26] = system: NCI-H446; experiment: Effect on p38 MAPK protein expression in human NCI-H446 cells at 0.6 uM in presence of CPT by Western blot method; format: functional, cell-based
[27] = system: NCI-H446; experiment: Cytotoxicity against human NCI-H446 cells assessed as reduction in cell viability after 48 hrs by MTT assay; format: functional, cell-based; conditions: NCI-H446, 48 h
[28] = system: NCI-H1299; experiment: Effect on ERK1/2 protein expression in human NCI-H1299 cells at 0.3 uM in presence of CPT by Western blot method; format: functional, cell-based
[29] = system: NCI-H1299; experiment: Decrease in p38 MAPK protein expression in human NCI-H1299 cells at 0.3 uM in presence of HCPT by Western blot method; format: functional, cell-based
[30] = system: NCI-H1299; experiment: Induction of apoptosis in human NCI-H1299 cells assessed as increase in pro-apoptotic cells at 0.3 uM after 48 hrs in presence of HCPT by Annexin-V FITC/propidium iodide staining based flow cytometry; format: functional, cell-based
[31] = system: NCI-H1299; experiment: Induction of apoptosis in human NCI-H1299 cells assessed as pro-apoptotic cells at 0.3 uM after 48 hrs in presence of CPT by Annexin-V FITC/propidium iodide staining based flow cytometry; format: functional
[32] = system: NCI-H460; experiment: Cytotoxicity against human NCI-H460 cells assessed as reduction in cell viability by measuring combinantion index at 0.3 to 0.6 uM after 48 hrs in presence of CPT by MTT assay; format: functional
[33] = system: NCI-H1299; experiment: Induction of apoptosis in human NCI-H1299 cells assessed as activation of caspase-3/7 at 0.3 uM after 48 hrs in presence of CPT by luciferase reporter gene assay; format: functional, cell-based
[34] = target: c-Jun N-terminal kinase, JNK (Homo sapiens) (UniProt P45983+P53779+P45984); experiment: Increase in JNK phosphorylation in human NCI-H460 cells at 0.6 uM in presence of CPT by Western blot method; format: cell-based
[35] = system: NCI-H1299; experiment: Decrease in p38 MAPK protein expression in human NCI-H1299 cells at 0.3 uM in presence of CPT by Western blot method; format: functional, cell-based

T2 sequence (P27361 whole entry, looked up): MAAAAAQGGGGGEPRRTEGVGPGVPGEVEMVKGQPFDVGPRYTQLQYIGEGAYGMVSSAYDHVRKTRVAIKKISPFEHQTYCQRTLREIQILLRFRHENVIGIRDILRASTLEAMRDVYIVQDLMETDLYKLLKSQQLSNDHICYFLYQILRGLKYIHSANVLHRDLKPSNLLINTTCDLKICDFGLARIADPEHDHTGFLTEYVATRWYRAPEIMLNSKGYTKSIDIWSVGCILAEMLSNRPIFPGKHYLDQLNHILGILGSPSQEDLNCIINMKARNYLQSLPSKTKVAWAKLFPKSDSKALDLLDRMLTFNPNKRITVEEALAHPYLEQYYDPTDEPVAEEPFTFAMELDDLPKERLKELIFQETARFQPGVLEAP
T2 sequence (P28482 whole entry, looked up): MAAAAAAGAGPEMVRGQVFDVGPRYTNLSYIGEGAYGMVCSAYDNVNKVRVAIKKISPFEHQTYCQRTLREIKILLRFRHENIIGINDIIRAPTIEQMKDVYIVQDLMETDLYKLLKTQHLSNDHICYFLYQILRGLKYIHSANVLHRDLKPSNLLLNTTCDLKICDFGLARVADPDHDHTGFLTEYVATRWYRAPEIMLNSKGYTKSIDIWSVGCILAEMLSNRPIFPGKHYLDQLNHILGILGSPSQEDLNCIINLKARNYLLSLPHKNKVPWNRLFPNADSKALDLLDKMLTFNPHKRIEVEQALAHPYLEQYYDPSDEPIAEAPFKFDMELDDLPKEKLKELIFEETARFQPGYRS

C[C@@H]1CC[C@@]2(OC1)O[C@H]1C[C@H]3[C@@H]4CC=C5C[C@@H](O[C@@H]6O[C@H](CO)[C@@H](O[C@@H]7O[C@@H](CO)[C@H](O)[C@H]7O)[C@H](O)[C@H]6O[C@@H]6O[C@@H](C)[C@H](O)[C@@H](O)[C@H]6O)CC[C@]5(C)[C@H]4CC[C@]3(C)[C@H]1[C@@H]2C
CI [1]: <1
Activity [2]: Active
Activity [3]: Active
Activity [4]: Active
Activity [5]: Active
Activity [6]: Active
Activity [7]: inactive
Activity [8]: Active
Activity [9]: inactive
Activity [10]: Active
Activity [11]: Tde
Activity [12]: Active
fold change (FC) [13]: 2
Activity [14]: Active
Activity [15]: Active
Activity [16]: Active
Activity [17]: Tde
Activity [18]: inactive
Activity [19]: Active
Activity [20]: Active
Activity [21]: Active
CI [22]: <1
IC50 [23]: < 1000 nM
Activity [24]: Active
Activity [25]: Active
Activity [26]: inactive
IC50 [27]: < 1000 nM
Activity [28]: inactive
Activity [29]: Active
Activity [30]: Active
Activity [31]: 60%
CI [32]: <1
Activity [33]: Active
Activity [34]: Active
Activity [35]: Active
